Reference: US12077503B2, “Substituted cyclic amides and their use as herbicides” (FMC CORPORATION, priority 2015, dated 2024)

Assays:
Type in all cases: in vivo
rice (Oryra sativa) = assay: Test B flooded paddy test; details: Oryza sativa, 250 g ai/ha, Flood; 0 to 100 scale where 0 is no effect and 100 is complete control; read-out: Rice plant response rating
How it was run: (§1)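 Percent control, visually estimated after 13–15 d in the greenhouse on a 0–100 basis, compares treated pots with untreated ones; compound was put into paddy water 3 cm above the soil when plants had two leaves.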

[1] = test system: ducksalad (Heteranthera limosa); assay: Test B flooded paddy test; details: Heteranthera limosa, 250 g ai/ha, Flood; 0 to 100 scale where 0 is no effect and 100 is complete control; read-out: Ducksalad plant response rating
How it was run: as §1

[2] = test system: barnyardgrass (Echinochloa crus-galli); assay: Test B flooded paddy test; details: Echinochloa crus-galli, 250 g ai/ha, Flood; 0 to 100 scale where 0 is no effect and 100 is complete control; read-out: Barnyardgrass plant response rating
How it was run: as §1

[3] = test system: sedge, umbrella (small-flower umbrella sedge, Cyperus difformis); assay: Test B flooded paddy test; details: Cyperus difformis, 250 g ai/ha, Flood; 0 to 100 scale where 0 is no effect and 100 is complete control; read-out: Sedge, Umbrella plant response rating
How it was run: as §1

[4] = test system: ragweed (common ragweed, Ambrosia elatior); assay: Test A preemergence; details: Ambrosia artemisiifolia, pre-emergence, 240 h, 0 to 100 scale where 0 is no effect and 100 is complete control, read-out: Ragweed plant response rating
How it was run: (§2)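 Visual injury, scored on a 0–100 scale relative to untreated controls, was recorded about 10 d after application. Treatments were a preemergence soil spray over planted seeds or a postemergence spray on plants at the one- to two-leaf stage, 2 to 10 cm tall, all in loam soil–sand blend in the greenhouse.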

[5] = test system: giant foxtail (Setaria faberii); assay: Test A preemergence; details: Setaria faberi, pre-emergence, 240 h, 0 to 100 scale where 0 is no effect and 100 is complete control, read-out: Foxtail, Giant plant response rating
How it was run: as §2

[6] = test system: barnyardgrass (Echinochloa crus-galli); assay: Test A preemergence; details: Echinochloa crus-galli, pre-emergence, 240 h, 0 to 100 scale where 0 is no effect and 100 is complete control, read-out: Barnyardgrass plant response rating
How it was run: as §2

[7] = test system: pigweed (Amaranthus retroflexus); assay: Test A preemergence; details: Amaranthus retroflexus, pre-emergence, 240 h, 0 to 100 scale where 0 is no effect and 100 is complete control, read-out: Pigweed plant response rating
Kochia (Kochia scoparia) [8] = assay: Test A preemergence; details: Bassia scoparia, pre-emergence, 240 h, 0 to 100 scale where 0 is no effect and 100 is complete control, read-out: Kochia plant response rating
How it was run: as §2

[9] = test system: ryegrass, Italian (Italian ryegrass, Lolium multiflorum); assay: Test A preemergence; details: Lolium multiflorum, pre-emergence, 240 h, 0 to 100 scale where 0 is no effect and 100 is complete control, read-out: Ryegrass, Italian plant response rating
How it was run: as §2

[10] = test system: wheat (Triticum aestivum); assay: Test A postemergence; details: Triticum aestivum, post-emergence, 240 h
How it was run: as §2

[11] = test system: blackgrass (Alopecurus myosuroides); assay: Test A postemergence; details: Alopecurus myosuroides, post-emergence, 240 h
How it was run: as §2

[12] = test system: Galium (catchweed bedstraw, Galium aparine); assay: Test A postemergence; details: Galium, post-emergence, 240 h
How it was run: as §2

[13] = test system: ragweed (common ragweed, Ambrosia elatior); assay: Test A postemergence; details: Ambrosia artemisiifolia, post-emergence, 240 h
How it was run: as §2

corn (Zea mays) = assay: Test A postemergence; details: Zea mays, post-emergence, 240 h
How it was run: as §2

[14] = test system: giant foxtail (Setaria faberii); assay: Test A postemergence; details: Setaria faberi, post-emergence, 240 h
How it was run: as §2

[15] = test system: barnyardgrass (Echinochloa crus-galli); assay: Test A postemergence; details: Echinochloa crus-galli, post-emergence, 240 h
How it was run: as §2

[16] = test system: pigweed (Amaranthus retroflexus); assay: Test A postemergence; details: Amaranthus retroflexus, post-emergence, 240 h
How it was run: as §2

Kochia (Kochia scoparia) [17] = assay: Test A postemergence; details: Bassia scoparia, post-emergence, 240 h
How it was run: as §2

[18] = test system: ryegrass, Italian (Italian ryegrass, Lolium multiflorum); assay: Test A postemergence; details: Lolium multiflorum, post-emergence, 240 h
How it was run: as §2

[19] = 125 g ai/ha, preemergence, approx. 10 d

For `CN1C[C@H](c2cccc([Si](C)(C)C)c2)[C@@H](C(=O)Nc2cccc(F)c2F)C1=O` [Compound 1166], the pest or weed control at 250 g/ha (rice (Oryra sativa)) was 25%, the pest or weed control at 250 g/ha [1] was 30% and the pest or weed control at 250 g/ha [2] was 40%. It also gave a pest or weed control at 250 g/ha [3] of 0%, a pest or weed control at 31 g/ha ([4]; 31 g ai/ha, Preemergence) of 0% and a pest or weed control at 125 g/ha [4, 19] of 0%. The pest or weed control at 31 g/ha ([5]; 31 g ai/ha, Preemergence) was 20%, the pest or weed control at 125 g/ha [5, 19] was 80% and the pest or weed control at 31 g/ha ([6]; 31 g ai/ha, Preemergence) was 0%. The pest or weed control at 125 g/ha [6, 19] was 20%, the pest or weed control at 31 g/ha ([7]; 31 g ai/ha, Preemergence) was 0% and the pest or weed control at 125 g/ha [7, 19] was 0%. The pest or weed control at 31 g/ha (Kochia (Kochia scoparia) [8]; 31 g ai/ha, Preemergence) was 0%, the pest or weed control at 125 g/ha (Kochia (Kochia scoparia) [8]; [19]) was 0% and the pest or weed control at 31 g/ha ([9]; 31 g ai/ha, Preemergence) was 0%. It also gave a pest or weed control at 125 g/ha [9, 19] of 0%, a plant injury at 125 g/ha ([10]; 125 g ai/ha, postemergence, visual injury vs untreated controls after approx. 10 d, 0 = no effect, 100 = complete control, read-out: Wheat plant response rating (0 to 100 scale)) of 0% and a plant injury at 31 g/ha ([10]; Postemergence, 31 g ai/ha, visual injury after approx. 10 d, 0 to 100 scale, 0 no effect, 100 complete control, read-out: Plant response rating, Wheat) of 0%. For the same molecule, the pest or weed control at 125 g/ha ([11]; 125 g ai/ha, postemergence, visual injury vs untreated controls after approx. 10 d, 0 = no effect, 100 = complete control, read-out: Blackgrass plant response rating (0 to 100 scale)) was 0%, the pest or weed control at 31 g/ha ([11]; Postemergence, 31 g ai/ha, visual injury after approx. 10 d, 0 to 100 scale, 0 no effect, 100 complete control, read-out: Plant response rating, Blackgrass) was 0% and the pest or weed control at 125 g/ha ([12]; 125 g ai/ha, postemergence, visual injury vs untreated controls after approx. 10 d, 0 = no effect, 100 = complete control, read-out: Galium plant response rating (0 to 100 scale)) was 0%. It also gave a pest or weed control at 31 g/ha ([12]; Postemergence, 31 g ai/ha, visual injury after approx. 10 d, 0 to 100 scale, 0 no effect, 100 complete control, read-out: Plant response rating, Galium) of 0%, a pest or weed control at 125 g/ha ([13]; 125 g ai/ha, postemergence, visual injury vs untreated controls after approx. 10 d, 0 = no effect, 100 = complete control, read-out: Ragweed plant response rating (0 to 100 scale)) of 0% and a pest or weed control at 31 g/ha ([13]; Postemergence, 31 g ai/ha, visual injury after approx. 10 d, 0 to 100 scale, 0 no effect, 100 complete control, read-out: Plant response rating, Ragweed) of 0%. It also gave a plant injury at 125 g/ha (corn (Zea mays); 125 g ai/ha, postemergence, visual injury vs untreated controls after approx. 10 d, 0 = no effect, 100 = complete control, read-out: Corn plant response rating (0 to 100 scale)) of 0%, a Corn plant response rating (crop injury, 0 = no effect, 100 = complete kill) at 31 g/ha (corn (Zea mays); Postemergence, 31 g ai/ha, visual injury after approx. 10 d, 0 to 100 scale, 0 no effect, 100 complete control) of 0% and a pest or weed control at 125 g/ha ([14]; 125 g ai/ha, postemergence, visual injury vs untreated controls after approx. 10 d, 0 = no effect, 100 = complete control, read-out: Foxtail, Giant plant response rating (0 to 100 scale)) of 20%. It also gave a pest or weed control at 31 g/ha ([14]; Postemergence, 31 g ai/ha, visual injury after approx. 10 d, 0 to 100 scale, 0 no effect, 100 complete control, read-out: Plant response rating, Foxtail, Giant) of 0%, a pest or weed control at 125 g/ha ([15]; 125 g ai/ha, postemergence, visual injury vs untreated controls after approx. 10 d, 0 = no effect, 100 = complete control, read-out: Barnyardgrass plant response rating (0 to 100 scale)) of 0% and a pest or weed control at 31 g/ha ([15]; Postemergence, 31 g ai/ha, visual injury after approx. 10 d, 0 to 100 scale, 0 no effect, 100 complete control, read-out: Plant response rating, Barnyardgrass) of 0%. For the same molecule, the pest or weed control at 125 g/ha ([16]; 125 g ai/ha, postemergence, visual injury vs untreated controls after approx. 10 d, 0 = no effect, 100 = complete control, read-out: Pigweed plant response rating (0 to 100 scale)) was 0%, the pest or weed control at 31 g/ha ([16]; Postemergence, 31 g ai/ha, visual injury after approx. 10 d, 0 to 100 scale, 0 no effect, 100 complete control, read-out: Plant response rating, Pigweed) was 0% and the pest or weed control at 125 g/ha (Kochia (Kochia scoparia) [17]; 125 g ai/ha, postemergence, visual injury vs untreated controls after approx. 10 d, 0 = no effect, 100 = complete control, read-out: Kochia plant response rating (0 to 100 scale)) was 0%. For the same molecule, the pest or weed control at 31 g/ha (Kochia (Kochia scoparia) [17]; Postemergence, 31 g ai/ha, visual injury after approx. 10 d, 0 to 100 scale, 0 no effect, 100 complete control, read-out: Plant response rating, Kochia) was 0%, the pest or weed control at 125 g/ha ([18]; 125 g ai/ha, postemergence, visual injury vs untreated controls after approx. 10 d, 0 = no effect, 100 = complete control, read-out: Ryegrass, Italian plant response rating (0 to 100 scale)) was 0% and the pest or weed control at 31 g/ha ([18]; Postemergence, 31 g ai/ha, visual injury after approx. 10 d, 0 to 100 scale, 0 no effect, 100 complete control, read-out: Plant response rating, Ryegrass, Italian) was 0%.
